# Data: patent US11090319B2, “Therapeutic uses of pharmaceutical compositions comprising cyclic boronic acid ester derivatives” (Melinta Subsidiary Corp., priority 2010, dated 2021)
# Experiments:
# Experiment in all cases: Ceftazidime MIC with fixed concentration of BLI
# Format in all cases: cell-based
# [1] = test system: EC1004 Escherichia coli CMY-2; conditions: derivative at 10 μg/mL; EC1004 CMY-2
# Procedure: (§1) Next, ceftazidime potentiation activity of several cyclic boronic acid ester derivatives was tested using a larger panel of strains expressing β-lactamase hydrolyzing enzymes. Ceftazidime MICs were determined alone and in the presence of fixed concentrations of various cyclic boronic acid ester derivatives.
# [2] = test system: KP1007 Klebsiella pneumoniae OXA-10; conditions: derivative at 10 μg/mL; KP1007 OXA-10
# Procedure: as §1
# [3] = test system: KP1010 Klebsiella pneumoniae SHV-12; conditions: derivative at 10 μg/mL; KP1010 SHV-12
# Procedure: as §1
# [4] = test system: ec303 Escherichia coli TEM-12; conditions: derivative at 10 μg/mL; ec303 TEM-12
# Procedure: as §1
# [5] = test system: EC1006 Escherichia coli FOX-5; conditions: derivative at 10 μg/mL; EC1006 FOX-5
# Procedure: as §1
# [6] = test system: EC1012 Escherichia coli TEM-12; conditions: derivative at 10 μg/mL; EC1012 TEM-12
# Procedure: as §1
# [7] = test system: ec310 Escherichia coli ACT-1; conditions: derivative at 10 μg/mL; ec310 ACT-1
# Procedure: as §1
# [8] = test system: KP1012 Klebsiella pneumoniae SHV-18; conditions: derivative at 10 μg/mL; KP1012 SHV-18
# Procedure: as §1
# [9] = test system: AB1054 Acinetobacter baumannii OXA-23; conditions: derivative at 10 μg/mL; AB1054 OXA-23
# Procedure: as §1
# [10] = test system: EC1008 Escherichia coli CTX-M3; conditions: derivative at 10 μg/mL
# Procedure: as §1
# [11] = test system: EC1014 Escherichia coli DHA-1; conditions: derivative at 10 μg/mL; EC1014 DHA-1
# Procedure: as §1
# [12] = test system: EC1010 Escherichia coli CMY-6; conditions: derivative at 10 μg/mL; EC1010 CMY-6
# Procedure: as §1
# [13] = test system: PAM2035 Pseudomonas aeruginosa ampC mexA:tet; conditions: derivative at 10 μg/mL
# Procedure: as §1
# [14] = test system: ECL1002 Enterobacter cloacae Hyper AmpC expression; conditions: derivative at 10 μg/mL
# Procedure: as §1
# [15] = test system: ec308 Escherichia coli SHV-5; conditions: derivative at 10 μg/mL; ec308 SHV-5
# Procedure: as §1
# [16] = test system: ec302 Escherichia coli TEM-10; conditions: derivative at 10 μg/mL; ec302 TEM-10
# Procedure: as §1
# [17] = test system: KP1005 Klebsiella pneumoniae CTX-M-14; conditions: derivative at 10 μg/mL; KP1005 CTX-M-14
# Procedure: as §1
# [18] = test system: AB1057 Acinetobacter baumannii OXA-58; conditions: derivative at 10 μg/mL; AB1057 OXA-58
# Procedure: as §1
# [19] = test system: ec307 Escherichia coli SHV-4; conditions: derivative at 10 μg/mL; ec307 SHV-4
# Procedure: as §1
# [20] = test system: ec300 Escherichia coli TEM-3; conditions: derivative at 10 μg/mL; ec300 TEM-3
# Procedure: as §1
# [21] = test system: KX1000 Klebsiella oxytoca OXA-2; conditions: derivative at 10 μg/mL; KX1000 OXA-2
# Procedure: as §1
# [22] = test system: CF1000 Citrobacter freundii Hyper AmpC expression; conditions: derivative at 10 μg/mL
# Procedure: as §1
# [23] = test system: ec306 Escherichia coli SHV-2; conditions: derivative at 10 μg/mL; ec306 SHV-2
# Procedure: as §1
# [24] = test system: EC1011 Escherichia coli TEM-26; conditions: derivative at 10 μg/mL; EC1011 TEM-26
# Procedure: as §1
# [25] = test system: pa1063 Pseudomonas aeruginosa GES-1; conditions: derivative at 10 μg/mL; pa1063 GES-1
# Procedure: as §1
# [26] = test system: EC1009 Escherichia coli TEM-10; conditions: derivative at 10 μg/mL; EC1009 TEM-10
# Procedure: as §1
# [27] = test system: ec301 Escherichia coli TEM-6; conditions: derivative at 10 μg/mL; ec301 TEM-6
# Procedure: as §1
# [28] = test system: KP1008 Klebsiella pneumoniae KPC-2; conditions: derivative at 10 μg/mL; KP1008 KPC-2
# Procedure: as §1
# [29] = test system: ec309 Escherichia coli MIR-1; conditions: derivative at 10 μg/mL; ec309 MIR-1
# Procedure: as §1
# [30] = test system: KP1004 Klebsiella pneumoniae KPC-2; conditions: derivative at 10 μg/mL; KP1004 KPC-2
# Procedure: as §1
# [31] = test system: KP1009 Klebsiella pneumoniae CTX-M-15; conditions: derivative at 10 μg/mL; KP1009 CTX-M-15
# Procedure: as §1
structure (smiles),measurement,setting,value
"O=C(O)C[C@@H]1CC[C@H](NC(=O)Cc2ccccc2)B(O)O1 [Compound 6, 2-((3R,6S)-2-hydroxy-3-(2-phenylacetamido)-1,2-oxaborinan-6-yl)acetic acid]",Ceftazidime MIC with cyclic boronic acid ester derivative,[1],Y (MIC of greater than 1 μg/mL to 8 μg/mL)
same,Ceftazidime MIC with cyclic boronic acid ester derivative,[2],Y (MIC of greater than 1 μg/mL to 8 μg/mL)
same,Ceftazidime MIC with cyclic boronic acid ester derivative,[3],Y (MIC of greater than 1 μg/mL to 8 μg/mL)
same,Ceftazidime MIC with cyclic boronic acid ester derivative,[4],Y (MIC of greater than 1 μg/mL to 8 μg/mL)
same,Ceftazidime MIC with cyclic boronic acid ester derivative,[5],Y (MIC of greater than 1 μg/mL to 8 μg/mL)
same,Ceftazidime MIC with cyclic boronic acid ester derivative,[6],Y (MIC of greater than 1 μg/mL to 8 μg/mL)
same,Ceftazidime MIC with cyclic boronic acid ester derivative,[7],X (MIC of 1 μg/mL or less)
same,Ceftazidime MIC with cyclic boronic acid ester derivative,[8],Y (MIC of greater than 1 μg/mL to 8 μg/mL)
same,Ceftazidime MIC with cyclic boronic acid ester derivative,[9],Z (MIC of greater than 8 μg/mL)
same,Ceftazidime MIC with cyclic boronic acid ester derivative,[10],Y (MIC of greater than 1 μg/mL to 8 μg/mL)
same,Ceftazidime MIC with cyclic boronic acid ester derivative,[11],X (MIC of 1 μg/mL or less)
same,Ceftazidime MIC with cyclic boronic acid ester derivative,[12],Y (MIC of greater than 1 μg/mL to 8 μg/mL)
same,Ceftazidime MIC with cyclic boronic acid ester derivative,[13],Y (MIC of greater than 1 μg/mL to 8 μg/mL)
same,Ceftazidime MIC with cyclic boronic acid ester derivative,[14],Y (MIC of greater than 1 μg/mL to 8 μg/mL)
same,Ceftazidime MIC with cyclic boronic acid ester derivative,[15],Z (MIC of greater than 8 μg/mL)
same,Ceftazidime MIC with cyclic boronic acid ester derivative,[16],Z (MIC of greater than 8 μg/mL)
same,Ceftazidime MIC with cyclic boronic acid ester derivative,[17],Z (MIC of greater than 8 μg/mL)
same,Ceftazidime MIC with cyclic boronic acid ester derivative,[18],Z (MIC of greater than 8 μg/mL)
same,Ceftazidime MIC with cyclic boronic acid ester derivative,[19],Z (MIC of greater than 8 μg/mL)
same,Ceftazidime MIC with cyclic boronic acid ester derivative,[20],Z (MIC of greater than 8 μg/mL)
same,Ceftazidime MIC with cyclic boronic acid ester derivative,[21],Y (MIC of greater than 1 μg/mL to 8 μg/mL)
same,Ceftazidime MIC with cyclic boronic acid ester derivative,[22],Y (MIC of greater than 1 μg/mL to 8 μg/mL)
same,Ceftazidime MIC with cyclic boronic acid ester derivative,[23],Z (MIC of greater than 8 μg/mL)
same,Ceftazidime MIC with cyclic boronic acid ester derivative,[24],Z (MIC of greater than 8 μg/mL)
same,Ceftazidime MIC with cyclic boronic acid ester derivative,[25],Z (MIC of greater than 8 μg/mL)
same,Ceftazidime MIC with cyclic boronic acid ester derivative,[26],Z (MIC of greater than 8 μg/mL)
same,Ceftazidime MIC with cyclic boronic acid ester derivative,[27],Z (MIC of greater than 8 μg/mL)
same,Ceftazidime MIC with cyclic boronic acid ester derivative,[28],X (MIC of 1 μg/mL or less)
same,Ceftazidime MIC with cyclic boronic acid ester derivative,[29],X (MIC of 1 μg/mL or less)
same,Ceftazidime MIC with cyclic boronic acid ester derivative,[30],Y (MIC of greater than 1 μg/mL to 8 μg/mL)
same,Ceftazidime MIC with cyclic boronic acid ester derivative,[31],Z (MIC of greater than 8 μg/mL)
"Cl.N[C@H]1CCC(CC(=O)O)OB1O (stereo partly drawn) [Compound 7, 2-((3R)-3-amino-2-hydroxy-1,2-oxaborinan-6-yl)acetic acid hydrochloride]",Ceftazidime MIC with cyclic boronic acid ester derivative,[1],Z (MIC of greater than 8 μg/mL)
same,Ceftazidime MIC with cyclic boronic acid ester derivative,[2],Z (MIC of greater than 8 μg/mL)
same,Ceftazidime MIC with cyclic boronic acid ester derivative,[3],Z (MIC of greater than 8 μg/mL)
same,Ceftazidime MIC with cyclic boronic acid ester derivative,[4],Z (MIC of greater than 8 μg/mL)
same,Ceftazidime MIC with cyclic boronic acid ester derivative,[5],Z (MIC of greater than 8 μg/mL)
same,Ceftazidime MIC with cyclic boronic acid ester derivative,[6],Z (MIC of greater than 8 μg/mL)
same,Ceftazidime MIC with cyclic boronic acid ester derivative,[7],Z (MIC of greater than 8 μg/mL)
same,Ceftazidime MIC with cyclic boronic acid ester derivative,[8],Z (MIC of greater than 8 μg/mL)
same,Ceftazidime MIC with cyclic boronic acid ester derivative,[9],Z (MIC of greater than 8 μg/mL)
same,Ceftazidime MIC with cyclic boronic acid ester derivative,[10],Z (MIC of greater than 8 μg/mL)
same,Ceftazidime MIC with cyclic boronic acid ester derivative,[11],Z (MIC of greater than 8 μg/mL)
same,Ceftazidime MIC with cyclic boronic acid ester derivative,[12],Z (MIC of greater than 8 μg/mL)
same,Ceftazidime MIC with cyclic boronic acid ester derivative,[13],Z (MIC of greater than 8 μg/mL)
same,Ceftazidime MIC with cyclic boronic acid ester derivative,[14],Z (MIC of greater than 8 μg/mL)
same,Ceftazidime MIC with cyclic boronic acid ester derivative,[15],Z (MIC of greater than 8 μg/mL)
same,Ceftazidime MIC with cyclic boronic acid ester derivative,[16],Z (MIC of greater than 8 μg/mL)
same,Ceftazidime MIC with cyclic boronic acid ester derivative,[17],Z (MIC of greater than 8 μg/mL)
same,Ceftazidime MIC with cyclic boronic acid ester derivative,[18],Z (MIC of greater than 8 μg/mL)
same,Ceftazidime MIC with cyclic boronic acid ester derivative,[19],Z (MIC of greater than 8 μg/mL)
same,Ceftazidime MIC with cyclic boronic acid ester derivative,[20],Z (MIC of greater than 8 μg/mL)
same,Ceftazidime MIC with cyclic boronic acid ester derivative,[21],Y (MIC of greater than 1 μg/mL to 8 μg/mL)
same,Ceftazidime MIC with cyclic boronic acid ester derivative,[22],Z (MIC of greater than 8 μg/mL)
same,Ceftazidime MIC with cyclic boronic acid ester derivative,[23],Z (MIC of greater than 8 μg/mL)
same,Ceftazidime MIC with cyclic boronic acid ester derivative,[24],Z (MIC of greater than 8 μg/mL)
same,Ceftazidime MIC with cyclic boronic acid ester derivative,[25],Z (MIC of greater than 8 μg/mL)
same,Ceftazidime MIC with cyclic boronic acid ester derivative,[26],Z (MIC of greater than 8 μg/mL)
same,Ceftazidime MIC with cyclic boronic acid ester derivative,[27],Z (MIC of greater than 8 μg/mL)
same,Ceftazidime MIC with cyclic boronic acid ester derivative,[28],Z (MIC of greater than 8 μg/mL)
same,Ceftazidime MIC with cyclic boronic acid ester derivative,[29],Z (MIC of greater than 8 μg/mL)
same,Ceftazidime MIC with cyclic boronic acid ester derivative,[30],Z (MIC of greater than 8 μg/mL)
same,Ceftazidime MIC with cyclic boronic acid ester derivative,[31],Z (MIC of greater than 8 μg/mL)
